A short description of data set [1]: Cytotoxicity against mouse RAW264.7 cells assessed as inhibition of cell viability at 5 uM after 24 hrs by MTT assay. In kind it is cell-based. To be noted: read-out: INH. Background: Formazan colour is commonly taken as a measure of viable cells.
Data set [2] in a line: Cytotoxicity against mouse RAW264.7 cells assessed as inhibition of cell viability at 2 uM after 24 hrs by MTT assay. To be noted: read-out: INH. The class given is cell-based.
Data set [3] in a line: Cytotoxicity against mouse RAW264.7 cells assessed as inhibition of cell viability at 10 uM after 24 hrs by MTT assay. To be noted: read-out: INH. The class given is cell-based.
The test system of data set [4] is RAW264.7. Kind of data set: cells. To be noted: Mus musculus, RAW264.7, 120 h.
Description: Antiosteoclast activity in mouse RAW264.7 cells assessed as inhibition of RANKL-induced osteoclast differentiation after 5 days by TRAP assay
Data set [5] in a line: Cytotoxicity against mouse RAW264.7 cells assessed as inhibition of cell viability at 20 uM after 24 hrs by MTT assay. The class given is cell-based. The following applies: read-out: INH.
In data set [6] the test system is RAW264.7. Kind of data set: Antiosteoclast activity in mouse RAW264.7 cells assessed as inhibition of RANKL-induced osteoclast differentiation at 2 uM after 5 days by TRAP assay. The following applies: RAW264.7, 120 h. In kind it is functional.
In data set [7] the test system is RAW264.7. Kind of data set: Antiosteoclast activity in mouse RAW264.7 cells assessed as inhibition of RANKL-induced osteoclast differentiation at 20 uM after 5 days by TRAP assay. The class given is functional. To be noted: RAW264.7, 120 h.
The subject of data set [8] is RAW264.7. Kind of data set: Downregulation of RANKL-induced c-Fos protein expression in mouse RAW264.7 cells at 5 uM after 2 days by Western blot analysis. In kind it is functional, cell-based. (A western blot detects proteins with antibodies after separation by electrophoresis.)
In data set [9] the test system is Rattus norvegicus. Kind of data set: Toxicity in ovariectomy rat model assessed as undeveloped endometrial luminal epithelium at 0.1 to 10 mg/kg/day, po administered for 4 weeks by haematoxylin/eosin staining based microscopy. In kind it is organism-based. To be noted: in vivo, 672 h.
Data set [10] deals with RAW264.7. The experiment in a line: Downregulation of RANKL-induced CTR mRNA expression in mouse RAW264.7 cells at 1 to 5 uM after 4 days by RT-qPCR analysis. In kind it is functional, cell-based. A general note: Quantitative PCR measures a nucleic acid by following its amplification.
In data set [11] the test system is Rattus norvegicus. Kind of data set: Antiosteoporotic effect in ovariectomy rat model assessed as increase in bone mineral density of lumbar spine L3 to L5 at 10 mg/kg/day, po administered for 4 weeks by dual-energy X-ray absorptiometry relative to control. In kind it is functional, organism-based.
Data set [12] has as its system RAW264.7. The experiment in a line: Antiosteoclast activity in mouse RAW264.7 cells assessed as reduction in multinucleated osteoclasts at 2 to 20 uM after 5 days by TRAP assay. In kind it is functional, cell-based.
The subject of data set [13] is RAW264.7. Kind of data set: Downregulation of RANKL-induced NFATc1 mRNA expression in mouse RAW264.7 cells at 5 uM after 2 days by RT-qPCR analysis. The class given is functional, cell-based.
Data set [14] concerns RAW264.7. Kind of data set: Downregulation of RANKL-induced c-Fos mRNA expression in mouse RAW264.7 cells at 1 to 5 uM after 2 days by RT-qPCR analysis. In kind it is functional, cell-based.
For data set [15], the system named is Rattus norvegicus. The experiment in a line: Toxicity in ovariectomy rat model assessed as reduction in uterine weight at 0.1 to 10 mg/kg/day, po administered for 4 weeks. In kind it is organism-based. To be noted: in vivo, 672 h.
Data set [16] concerns RAW264.7. The experiment in a line: Downregulation of RANKL-induced TRAP mRNA expression in mouse RAW264.7 cells at 1 to 5 uM after 4 days by RT-qPCR analysis. In kind it is functional, cell-based.
For data set [17], the system named is RAW264.7. The experiment in a line: Downregulation of RANKL-induced CathK mRNA expression in mouse RAW264.7 cells at 1 to 5 uM after 4 days by RT-qPCR analysis. The class given is functional, cell-based.
Data set [18] relates to Rattus norvegicus. The experiment in a line: Toxicity in ovariectomy rat model assessed as undeveloped endometrial gland at 0.1 to 10 mg/kg/day, po administered for 4 weeks by haematoxylin/eosin staining based microscopy. In kind it is organism-based. To be noted: in vivo, 672 h.
Data set [19] has as its system Rattus norvegicus. The experiment in a line: Antiosteoporotic effect in ovariectomy rat model assessed as increase in bone mineral density of lumbar spine L3 to L5 at 1 mg/kg/day, po administered for 4 weeks by dual-energy X-ray absorptiometry relative to control. In kind it is functional, organism-based.
The subject of data set [20] is Rattus norvegicus. Kind of data set: Antiosteoporotic effect in ovariectomy rat model assessed as increase in bone mineral density of lumbar spine L3 to L5 at 0.1 mg/kg/day, po administered for 4 weeks by dual-energy X-ray absorptiometry relative to control. The class given is functional, organism-based.
The subject of data set [21] is RAW264.7. The experiment in a line: Downregulation of RANKL-induced NFATc1 protein expression in mouse RAW264.7 cells at 5 uM after 2 days by Western blot analysis. The class given is functional, cell-based.

The results in this text go back to ChEMBL document CHEMBL3784938, “Novel heterocyclic ring-fused oleanolic acid derivatives as osteoclast inhibitors for osteoporosis” (Medchemcomm, 2016).

Activity calls are given as the source filed them. The rule behind the calls is not given here.

Usually IC50 stands for the concentration needed to halve the response being measured. The inhibition is how much of the control response was suppressed. Turning to `COc1ccc(S(=O)(=O)n2cc3c(n2)C(C)(C)[C@@H]2CC[C@]4(C)[C@H](CC=C5[C@@H]6CC(C)(C)CC[C@]6(C(=O)NCCN6CCCCC6)CC[C@]54C)[C@@]2(C)C3)cc1`, in data set [1], the cytotoxicity at 24 h, 5 µM stood at 0%. The cytotoxicity at 24 h, 2 µM in data set [2] came to 0%. Besides, the cytotoxicity at 24 h, 10 µM in data set [3] came to 67.5%. This molecule also yielded a concentration for half-maximal inhibition (IC50) in the data set on RAW264.7 [4] of 88 nM. Further, in [5], the cytotoxicity at 24 h, 20 µM was 72.9%. Besides, the inhibition at 2 µM with RAW264.7 [6] came out at 100%. In addition, the inhibition at 20 µM with RAW264.7 [7] worked out at 100%.

`COc1ccc(S(=O)(=O)n2cc3c(n2)C(C)(C)[C@@H]2CC[C@]4(C)[C@H](CC=C5[C@@H]6CC(C)(C)CC[C@]6(C(=O)NC6CCN(Cc7ccccc7)CC6)CC[C@]54C)[C@@]2(C)C3)cc1`: the inhibition result in the data set with RAW264.7 [8], in the data set on RAW264.7 [10], in the data set with RAW264.7 [12], in the data set with RAW264.7 [13], in the data set on RAW264.7 [14] and with RAW264.7 [16] was “Active” throughout. The inhibition result in the data set with RAW264.7 [17] and in the data set with RAW264.7 [21] was “Active” throughout. For the same molecule, in [1], the cytotoxicity at 24 h, 5 µM was found to be 0%. Moreover, the cytotoxicity at 24 h, 2 µM in [2] worked out at 0%. The Activity entry in the data set with Rattus norvegicus [9], in the data set on Rattus norvegicus [15] and in the data set with Rattus norvegicus [18] was “Non-toxic” in each case. Further, the outcome in the data set with Rattus norvegicus [11] and with Rattus norvegicus [19] was Active. Further, in data set [3], the cytotoxicity at 24 h, 10 µM was determined as 6.6%. The half-inhibitory concentration (IC50) in the data set with RAW264.7 [4] was found to be 24 nM. Also, the cytotoxicity at 24 h, 20 µM in data set [5] is 58.2%. Further, the inhibition at 2 µM in the data set with RAW264.7 [6] worked out at 90%. The inhibition at 20 µM in the data set with RAW264.7 [7] is 100%. For the same molecule, the outcome in the data set with Rattus norvegicus [20] was inactive.

Regarding `CC1(C)CC[C@]2(C(=O)NCCN3CCCCC3)CC[C@]3(C)C(=CC[C@@H]4[C@@]5(C)Cc6cn(S(=O)(=O)c7ccc(F)cc7)nc6C(C)(C)[C@@H]5CC[C@]43C)[C@@H]2C1`, in [1], the cytotoxicity at 24 h, 5 µM came out at 0%. Also, the cytotoxicity at 24 h, 2 µM in data set [2] stood at 0%. In addition, the cytotoxicity at 24 h, 10 µM in [3] came to 74%. Moreover, half-maximal inhibition in the data set on RAW264.7 [4] (IC50) required 43 nM. In data set [5], the cytotoxicity at 24 h, 20 µM is 70.8%. Besides, the inhibition at 2 µM in the data set on RAW264.7 [6] worked out at 100%. Also, the inhibition at 20 µM in the data set with RAW264.7 [7] was 100%.

Consider `CC1(C)CC[C@]2(C(=O)NCCN3CCCCC3)CC[C@]3(C)C(=CC[C@@H]4[C@@]5(C)Cc6c[nH]nc6C(C)(C)[C@@H]5CC[C@]43C)[C@@H]2C1`, for which, in data set [1], the cytotoxicity at 24 h, 5 µM was determined as 0%. The cytotoxicity at 24 h, 2 µM in data set [2] is 0%. The cytotoxicity at 24 h, 10 µM in data set [3] is 0%. Besides, half-maximal inhibition with RAW264.7 [4] (IC50) required 99 nM. In addition, the cytotoxicity at 24 h, 20 µM in data set [5] is 0%. Further, in the data set on RAW264.7 [6], the inhibition at 2 µM was 95.1%. In the data set on RAW264.7 [7], the inhibition at 20 µM was found to be 100%.

For `CC1(C)CC[C@]2(C(=O)NCCN3CCCCC3)CC[C@]3(C)C(=CC[C@@H]4[C@@]5(C)Cc6cn(S(=O)(=O)c7ccc(Br)cc7)nc6C(C)(C)[C@@H]5CC[C@]43C)[C@@H]2C1`, the cytotoxicity at 24 h, 5 µM in [1] was determined as 0%. Further, the cytotoxicity at 24 h, 2 µM in data set [2] amounted to 0%. Moreover, in data set [3], the cytotoxicity at 24 h, 10 µM stood at 67.2%. 78 nM corresponded to half-maximal inhibition with RAW264.7 [4] (IC50). The cytotoxicity at 24 h, 20 µM in data set [5] turned out to be 70.8%. Also, in the data set on RAW264.7 [6], the inhibition at 2 µM came out at 100%. Further, in the data set on RAW264.7 [7], the inhibition at 20 µM was determined as 100%.

Turning to `COc1ccc(S(=O)(=O)n2cc3c(n2)C(C)(C)[C@@H]2CC[C@]4(C)[C@H](CC=C5[C@@H]6CC(C)(C)CC[C@]6(C(=O)NCCN6CCCCC6)CC[C@]54C)[C@@]2(C)C3)cc1OC`, in [1], the cytotoxicity at 24 h, 5 µM was 0%. Also, in [2], the cytotoxicity at 24 h, 2 µM stood at 0%. For the same molecule, the cytotoxicity at 24 h, 10 µM in data set [3] is 52.6%. The molecule further gave an IC50 in the data set with RAW264.7 [4] of 130 nM. For the same molecule, in [5], the cytotoxicity at 24 h, 20 µM worked out at 71.1%. Also, the inhibition at 2 µM in the data set on RAW264.7 [6] was 100%. Besides, the inhibition at 20 µM in the data set on RAW264.7 [7] turned out to be 100%.

Consider `COc1ccc(S(=O)(=O)n2cc3c(n2)C(C)(C)[C@@H]2CC[C@]4(C)[C@H](CC=C5[C@@H]6CC(C)(C)CC[C@]6(C(=O)NC6CCN(Cc7ccccc7)CC6)CC[C@]54C)[C@@]2(C)C3)cc1OC`, for which the cytotoxicity at 24 h, 5 µM in [1] was 0%. Further, the cytotoxicity at 24 h, 2 µM in data set [2] was 0%. For the same molecule, the cytotoxicity at 24 h, 10 µM in data set [3] was 0%. In addition, inhibition with RAW264.7 [4] was half-maximal at 35 nM (IC50). The cytotoxicity at 24 h, 20 µM in data set [5] was found to be 0%. In addition, in the data set with RAW264.7 [6], the inhibition at 2 µM stood at 93.2%. In addition, the inhibition at 20 µM in the data set on RAW264.7 [7] was found to be 100%.

As to `NCCCC(O)(P(=O)(O)O)P(=O)(O)O` [ALENDRONATE SODIUM], the IC50 with RAW264.7 [4] stood at 84 nM. The inhibition at 2 µM in the data set with RAW264.7 [6] was determined as 93.2%. For the same molecule, in the data set on Rattus norvegicus [19], the result was Active.
